What was measured:
[1] = biological target: dopamine D2 receptor (Homo sapiens, UniProt P14416)
[2] = biological target: serotonin 2A (5HT2A) receptor (Homo sapiens, UniProt P28223)
Chain of serotonin 2A (5HT2A) receptor (P28223 whole entry): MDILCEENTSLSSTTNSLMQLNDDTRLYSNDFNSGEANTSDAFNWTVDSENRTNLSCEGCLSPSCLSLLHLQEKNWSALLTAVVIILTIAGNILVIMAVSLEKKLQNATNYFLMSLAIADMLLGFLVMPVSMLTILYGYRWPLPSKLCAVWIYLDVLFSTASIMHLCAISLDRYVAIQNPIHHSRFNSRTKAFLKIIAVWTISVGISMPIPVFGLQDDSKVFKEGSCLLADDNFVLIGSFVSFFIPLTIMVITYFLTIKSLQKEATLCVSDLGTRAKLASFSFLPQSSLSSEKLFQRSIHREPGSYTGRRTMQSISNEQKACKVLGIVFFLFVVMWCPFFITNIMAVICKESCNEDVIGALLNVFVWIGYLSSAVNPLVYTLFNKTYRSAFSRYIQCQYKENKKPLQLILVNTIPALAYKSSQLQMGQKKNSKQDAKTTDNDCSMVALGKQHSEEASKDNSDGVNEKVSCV
Text: The ability of the novel compounds of this invention to bind to the dopamine D2 and serotonin 2A (5HT2A) receptors can be determined using conventional radioligand receptor binding assays. All receptors can be heterologously expressed in cell lines and experiments conducted in membrane preparations from the cell lines using procedures outlined below. IC50 concentrations can be determined by nonlinear regression of concentration-dependent reduction in specific binding. The Cheng-Prussoff equation can be used to convert the IC50 to Ki concentrations.
[^3H]Ketanserin binding to Swiss-h5HT2A cell membranes can be carried out in 250 μl of 50 mM Tris-HCl buffer pH 7.4. Duplicate samples containing (in order of addition) test compounds, 1.0 nM [^3H]ketanserin, and approximately 75 μg protein are incubated for 120 minutes at room temperature. Bound radioligand is separated by rapid filtration under reduced pressure through Whatman GF/B glass fiber filters previously treated with 0.3% polyethyleneimine. Radioactivity retained on the filter is determined by liquid scintillation spectrophotometry.

Chain of dopamine D2 receptor (P14416 whole entry): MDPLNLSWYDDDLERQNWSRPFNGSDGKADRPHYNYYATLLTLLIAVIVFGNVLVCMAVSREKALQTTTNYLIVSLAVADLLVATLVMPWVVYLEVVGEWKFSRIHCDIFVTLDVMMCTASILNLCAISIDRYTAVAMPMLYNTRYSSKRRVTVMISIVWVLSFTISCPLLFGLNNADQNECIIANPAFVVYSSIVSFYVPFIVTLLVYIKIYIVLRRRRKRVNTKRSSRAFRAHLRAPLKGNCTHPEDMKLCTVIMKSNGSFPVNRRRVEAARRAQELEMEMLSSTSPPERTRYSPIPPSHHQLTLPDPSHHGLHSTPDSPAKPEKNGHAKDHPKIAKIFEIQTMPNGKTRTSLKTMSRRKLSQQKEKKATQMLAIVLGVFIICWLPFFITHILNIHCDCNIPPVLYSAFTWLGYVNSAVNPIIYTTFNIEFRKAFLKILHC

SMILES | melting point [°C] | Ki [1] [nM] | Ki [2] [nM]
CN1Cc2c(c3cc(CCCN4CCN(c5nsc6ccccc56)CC4)ccc3[nH]c2=O)C1 [Example 172, 8-[3-(4-BENZO[D]ISOTHIAZOL-3-YL-PIPERAZIN-1-YL)-PROPYL]-2-METHYL-1,2,3,5-TETRAHYDRO-PYRROLO[3,4-C]QUINOLIN-4-ONE] | 206 to 208 |  | 
CN1Cc2c(c3cc(CCN4CCN(c5nsc6ccccc56)CC4)ccc3[nH]c2=O)C1 [Example 173, 8-[2-(4-BENZO[D]ISOTHIAZOL-3-YL-PIPERAZIN-1-YL)-ETHYL]-2-METHYL-1,2,3,5-TETRAHYDRO-PYRROLO[3,4-C]QUINOLIN-4-ONE] | 205 to 207 |  | 
COc1cccc2c(N3CCN(CCc4cc(C)c5c(c4)C(C)(C)CC(=O)N5)CC3)nsc12 [Example 31, 6-{2-[4-(7-METHOXY-BENZO[D]ISOTHIAZOL-3-YL)-PIPERAZIN-1-YL]-ETHYL}-4,4,8-TRIMETHYL-3,4-DIHYDRO-1H-QUINOLIN-2-ONE] |  | 1 | 2
CC1(C)Cc2cc(CCN3CCN(c4noc5ccccc45)CC3)ccc2NC1=O [Example 8, 6-[2-(4-BENZO[D]ISOXAZOL-3-YL-PIPERAZIN-1-YL)-ETHYL]-3,3-DIMETHYL-3,4-DIHYDRO-1H-QUINOLIN-2-ONE] |  | 7 | 5
Cc1c(Cl)c(CCN2CCN(c3nsc4ccccc34)CC2)cc2c1NC(=O)CC2(C)C [Example 23, 6-[2-(4-BENZO[D]ISOTHIAZOL-3-YL-PIPERAZIN-1-YL)-ETHYL]-7-CHLORO-4,4,8-TRIMETHYL-3,4-DIHYDRO-1H-QUINOLIN-2-ONE METHANESULFONATE] |  | 0.9 | 1
CC1Cc2cc(CCCN3CCN(c4nsc5ccccc45)CC3)ccc2NC1=O (stereo not shown) [Example 59, 6-[3-(4-BENZO[D]ISOTHIAZOL-3-YL-PIPERAZIN-1-YL)-PROPYL]-3-METHYL-3,4-DIHYDRO-1H-QUINOLIN-2-ONE] | 212 |  | 
CC1Cc2cc(CCCN3CCN(c4noc5ccccc45)CC3)ccc2NC1=O (stereo not shown) [Example 60, 6-[3-(4-BENZO[D]ISOXAZOL-3-YL-PIPERAZIN-1-YL)-PROPYL]-3-METHYL-3,4-DIHYDRO-1H-QUINOLIN-2-ONE] | 185 to 187 |  | 

— patent US20040138230A1, “Heterocyclic substituted piperazines for the treatment of schizophrenia” (priority 2002, published 2004)
